# According to patent US8835501B2, “Pharmaceutical formulations of HDAC inhibitors” (TopoTarget UK Limited, priority 2005, dated 2014):
# “And” between values parts separate entries of the source, which are not always exact repeats. Identical values can stand only once. Like-named read-outs stand apart in the source and are kept apart here.
# What was measured:
# [1] = humans, given as a nutritional additive; cited from earlier work
# [2] = Dilution experiments of saturated HDACi/salt former solutions; type: physicochemical; settings: for appearance after dilution with pH 7.4 phosphate buffer: 0.47 M and 0.314 M saturated samples
# [3] = cited from earlier work
# [4] = Solubility enhancement with acidic and basic in situ salt formers (~[…])
# [5] = Phase solubility for arginine and meglumine
# [6] = tested on: histone (H4 and/or H3) acetylation in peripheral blood mononuclear cells; assay: Pharmacodynamic analysis: histone acetylation in peripheral blood mononuclear cells; type: in vivo, human; settings: intravenous administration
# Text: Histones were isolated and probed with anti-acetylated histone (H4 and/or H3) antibody followed by HRP-secondary antibody.
# [7] = pH solubility profile in buffered 25% w/v HP-β-CD; type: physicochemical
# Text: It was noted that zwitterions can be self-buffering and this effect caused some instability in the buffering capacity of the buffer systems at high pH. Therefore, the required pH could only be achieved by adjusting the pH of the system by the addition of 1 M NaOH.
# [8] = Solubility enhancement with cyclodextrin and in situ salt formers; type: physicochemical
# [9] = Plasma PK analysis after 30-min I.V. infusion in subjects with advanced cancer; type: in vivo, human
# Procedure: Plasma PK analysis was performed for subjects of all dose groups on days 1 and 5 of cycle 1 following 30 minutes of I.V. infusion.
# [10] = human, in vivo, iv
# [11] = Oral administration of PXD-101 (gelatin capsule) to subjects; type: in vivo, human
# Text: Several subjects received PXD-101 in an oral formulation (e.g., PXD-101 in a gelatin capsule). […] Bioavailability for the oral formulation was approximately 33%.
# [12] = Solubility of PXD-101 in demineralised water; type: physicochemical
# [13] = physchem; settings: thermodynamic from solid, PXD-101 Concentration
# [14] = Solubility enhancement with cyclodextrins (saturated PXD-101 samples; HP-β-CD phase solubility); type: physicochemical; settings: saturated PXD-101 in aqueous cyclodextrin 250 mg/mL (α-CD 100 mg/mL)
# Procedure: Saturated samples of PXD-101 were prepared in aqueous solutions of two natural cyclodextrins (α-CD and γ-CD) and hydroxypropyl derivatives of the α, β and γ cyclodextrins (HP-α-CD, HP-β-CD and HP-γ-CD). […] The calculated saturated solubilities of the complexed HDACi were plotted against the concentration of cyclodextrin. […] This type of phase solubility diagram for cyclodextrins is referred to as an A-Type phase solubility plot. […] This deviation may be due to experimental error caused by the decision to use of mass, instead of volume, to dispense the more concentrated cyclodextrin samples due to their viscosity. Alternatively, it is possible that there is a slight deviation from the linear A-Type phase solubility behaviour.
# [15] = PXD-101 in basic in situ salt former, […]
# [16] = PXD-101 in acidic in situ salt former, […]
# [17] = 150 mg/m^2, 30-min I.V. infusion, cycle 1
# [18] = 300 mg/m^2, 30-min I.V. infusion, cycle 1
# [19] = 600 mg/m^2, 30-min I.V. infusion, cycle 1
# [20] = 900 mg/m^2, 30-min I.V. infusion, cycle 1
# [21] = 1200 mg/m^2, 30-min I.V. infusion, cycle 1
compound,measurement,setting,value
"N=C(N)NCCC[C@H](N)C(=O)O [Arginine, (S)-2-amino-5-[(aminoiminomethyl)-amino]pentanoic acid]",well tolerated dose,[1],up to 30 g/kg
same,appearance after dilution with pH 7.4 phosphate buffer,[2],initially clear solutions but some crystallisation
same,content of saturated aqueous solution,"[3]; water, 21° C.",15 % w/w
OCCNCCO [Diethanolamine],pH of Solution,[4]; [15],9.13
NCCN [Ethylenediamine],dilution of saturated HDACi solution to infusion concentration of […],[2]; basic salt former solutions diluted with 5% w/v glucose and 0.9% w/v saline,incompatibility
O=C(O)[C@H](O)[C@@H](O)[C@H](O[C@@H]1O[C@H](CO)[C@H](O)[C@H](O)[C@H]1O)[C@H](O)CO [Lactobionic Acid],pH of Solution,[4]; [16],2.43
NCCCC[C@H](N)C(=O)O [Lysine],pH of Solution,[4],9.11
O=C(O)/C=C\C(=O)O [Maleic Acid],pH of Solution,[4]; [16],1.65
O=C(O)CC(O)C(=O)O (centres unmarked) [Malic Acid],pH of Solution,[4]; [16],2.19
same,S/D Molar ratio (salt former-to-HDACi),"[4]; acidic in situ salt former, […]",309
"CNC[C@H](O)[C@@H](O)[C@H](O)[C@H](O)CO [Meglumine, 1-deoxy-1-(methylamino)-D-glucitol]",appearance after dilution with pH 7.4 phosphate buffer,[2],turbid solutions
same,pH of saturated HDACi solution,"[5]; basic salt ×1, 0.157 M",9.20
same,pH of saturated HDACi solution,"[5]; basic salt ×2, 0.314 M",9.33
same,pH of saturated HDACi solution,"[5]; basic salt ×3, 0.47 M",9.40
same,Predicted Salt Former Conc. to achieve target PXD-101 Conc.,[5]; target PXD-101 50 mg/mL,79.2 mg/mL
same,Predicted Salt Former Conc. to achieve target PXD-101 Conc.,[5]; target PXD-101 70 mg/mL,126.9 mg/mL
same,Predicted Salt Former Conc. to achieve target PXD-101 Conc.,[5]; target PXD-101 100 mg/mL,158.3 mg/mL
same,solubility in water,[3]; 25° C.,~100 g in 100 mL
"O=C(/C=C/c1cccc(S(=O)(=O)Nc2ccccc2)c1)NO [PXD-101, N-hydroxy-3-(3-phenylsulfamoyl-phenyl)-acrylamide]",time after administration at which increased acetylated histones could be detected,[6],up to 24 hours
same,PXD-101 Conc.,"[7]; pH adjusted with 1M NaOH, actual pH 8.91",36.0 mg/mL
same,PXD-101 Conc.,"[7]; target pH 4, actual pH 4.35",14.5 mg/mL
same,PXD-101 Conc.,"[7]; target pH 6, actual pH 5.99",17.3 mg/mL
same,PXD-101 Conc.,"[7]; target pH 7.4, actual pH 7.28",18.8 mg/mL
same,PXD-101 Conc.,"[7]; target pH 9.5, actual pH 8.09",19.4 mg/mL
same,PXD-101 Concentration,[8]; 25% w/v HP-β-CD + arginine 0.157 M (27.4 mg/mL),39.2 mg/mL
same,PXD-101 Concentration,[8]; 25% w/v HP-β-CD + arginine 0.314 M (54.8 mg/mL),57.1 mg/mL and 57.0 mg/mL
same,PXD-101 Concentration,[8]; 25% w/v HP-β-CD + meglumine 0.157 M (30.7 mg/mL),43.0 mg/mL
same,PXD-101 Concentration,[8]; 25% w/v HP-β-CD + meglumine 0.314 M (61.4 mg/mL),62.5 mg/mL
same,enhancement of HDACi solubility,"[8]; using one or more of cyclodextrin, arginine, meglumine",~500 fold
same,AUC0-t/AUC0-∞,[9]; [17],99.0 ± 0.7%
same,AUCday 5/AUCday 1,[9]; [17],115 ± 22%
same,CLs,[9]; [17],122.6 ± 30.6 L/hr/m^2
same,Vd,[9]; [17],115.1 ± 43.5 L/m^2
same,AUC0-t/AUC0-∞,[9]; [18],99.7 ± 0.1%
same,AUCday 5/AUCday 1,[9]; [18],112 ± 21%
same,CLs,[9]; [18],94.6 ± 34.9 L/hr/m^2
same,Vd,[9]; [18],88.8 ± 31.8 L/m^2
same,AUC0-t/AUC0-∞,[9]; [19],99.9 ± 0.0%
same,AUCday 5/AUCday 1,[9]; [19],97%
same,CLs,[9]; [19],59.6 ± 16.0 L/hr/m^2
same,Cmax,[9]; [19],31177 ± 8968 ng/mL
same,Vd,[9]; [19],57.6 ± 13.9 L/m^2
same,AUC0-t/AUC0-∞,[9]; [20],99.8 ± 0.1%
same,CLs,[9]; [20],63.5 ± 16.4 L/hr/m^2
same,Vd,[9]; [20],48.8 ± 9.8 L/m^2
same,AUC0-t/AUC0-∞,[9]; [21],99.8 ± 0.1%
same,CLs,[9]; [21],66.6 ± 33.5 L/hr/m^2
same,Vd,[9]; [21],90.2 ± 87.3 L/m^2
same,accumulation on repeated dosing,[9]; I.V. days 1 to 5,no HDACi accumulation
same,dose dependence of plasma levels and AUC,"[9]; I.V., 150-1200 mg/m^2",dose proportional
same,AUC(0-t),"[9]; human, plasma, iv, 150 mg/m^2, 30-min I.V. infusion, cycle 1",1270 ± 272 ng·h/mL
same,Cmax,"[9]; human, plasma, iv, 150 mg/m^2, 30-min I.V. infusion, cycle 1, read-out: Cmax",6560 ± 2160 ng/mL
same,half-life,"[9]; human, plasma, iv, 150 mg/m^2, 30-min I.V. infusion, cycle 1, read-out: t1/2",46.6 ± 8.7 min
same,AUC(0-t),"[9]; human, plasma, iv, 300 mg/m^2, 30-min I.V. infusion, cycle 1",3500 ± 1100 ng·h/mL
same,Cmax,"[9]; human, plasma, iv, 300 mg/m^2, 30-min I.V. infusion, cycle 1, read-out: Cmax",15500 ± 6240 ng/mL
same,half-life,"[9]; human, plasma, iv, 300 mg/m^2, 30-min I.V. infusion, cycle 1, read-out: t1/2",44.6 ± 8 min
same,AUC(0-t),"[9]; human, plasma, iv, 600 mg/m^2, 30-min I.V. infusion, cycle 1",10700 ± 3010 ng·h/mL
same,half-life,"[9]; human, plasma, iv, 600 mg/m^2, 30-min I.V. infusion, cycle 1, read-out: t1/2",43.4 ± 6.7 min
same,AUC(0-t),"[9]; human, plasma, iv, 900 mg/m^2, 30-min I.V. infusion, cycle 1",14700 ± 3410 ng·h/mL
same,Cmax,"[9]; human, plasma, iv, 900 mg/m^2, 30-min I.V. infusion, cycle 1, read-out: Cmax",53800 ± 6380 ng/mL
same,half-life,"[9]; human, plasma, iv, 900 mg/m^2, 30-min I.V. infusion, cycle 1, read-out: t1/2",54.2 ± 8.7 min
same,AUC(0-t),"[9]; human, plasma, iv, 1200 mg/m^2, 30-min I.V. infusion, cycle 1",22000 ± 11000 ng·h/mL
same,Cmax,"[9]; human, plasma, iv, 1200 mg/m^2, 30-min I.V. infusion, cycle 1, read-out: Cmax",52400 ± 12700 ng/mL
same,half-life,"[9]; human, plasma, iv, 1200 mg/m^2, 30-min I.V. infusion, cycle 1, read-out: t1/2",85.5 ± 19.6 min
same,half-life,"[9]; human, plasma, iv, I.V., across dose levels 150-1200 mg/m^2, read-out: elimination half-life",47 to 86 min
same,laboratory tests / hematological toxicity,[10],no hematological toxicity was identified
same,main HDACi-related adverse events,[10],"fatigue, nausea, vomiting (infusion-related), and phlebitis"
same,other adverse events,[10],"headache, diarrhea, constipation, and dyspnea"
same,"plasma levels, oral versus intravenous","[11]; 900 and 1200 mg/m^2, FIG. 12",remain higher when dosed orally
same,bioavailability,"[11]; human, plasma, oral formulation (gelatin capsule)",~33%
same,tolerability,"[11]; oral dosing, preliminary data",good tolerability
same,solubility,[12],0.14 mg/mL
same,solubility thermodynamic,"[13]; pH 9.07, aqueous with cosolvent or surfactant or cyclodextrin",13.5 mg/mL
same,solubility thermodynamic,"[13]; pH 9.1, aqueous with cosolvent or surfactant or cyclodextrin",7.9 mg/mL
same,solubility thermodynamic,"[13]; pH 9.19, aqueous with cosolvent or surfactant or cyclodextrin",31.1 mg/mL
same,solubility thermodynamic,"[13]; pH 9.2, aqueous with cosolvent or surfactant or cyclodextrin",21.2 mg/mL
same,solubility thermodynamic,"[13]; pH 9.33, aqueous with cosolvent or surfactant or cyclodextrin",39.1 mg/mL
same,solubility thermodynamic,"[13]; pH 9.4, aqueous with cosolvent or surfactant or cyclodextrin",57.3 mg/mL
NC(CO)(CO)CO [Tris],pH of Solution,[4]; [15],8.97
"OC[C@H]1O[C@@H]2O[C@H]3[C@H](O)[C@@H](O)[C@@H](O[C@H]4[C@H](O)[C@@H](O)[C@@H](O[C@H]5[C@H](O)[C@@H](O)[C@@H](O[C@H]6[C@H](O)[C@@H](O)[C@@H](O[C@H]7[C@H](O)[C@@H](O)[C@@H](O[C@H]1[C@H](O)[C@H]2O)O[C@@H]7CO)O[C@@H]6CO)O[C@@H]5CO)O[C@@H]4CO)O[C@@H]3CO [α-CD, α-cyclodextrin]",HDACi (PXD-101) Concentration,[14],0.65 mg/mL
